Literature values as cited in patent publication US11116769B2, “Tadalafil free base-containing film dosage form containing polyethylene glycol-based polymer and/or vinyl pyrrolidone-based polymer as dispersion stabilizer” (CTC BIO, INC., priority 2013, dated 2021).

Question: For `CN1CC(=O)N2[C@H](c3ccc4c(c3)OCO4)c3[nH]c4ccccc4c3C[C@@H]2C1=O` [Tadalafil, (6R-trans)-6-(1,3-benzodioxol-5-yl)-2,3,6,7,12,12a-hexahydro-2-methyl-pyrazino[1′,2′:1,6]pyrido[3,4-b]indole-1,4-dione], which “solubility in organic solvents” value (some organic solvents such as methanol, ethanol and acetone) is on record?
Answer: Its value is “slightly soluble”.

Question: And the “solubility in water” value (water)?
Answer: Its value is “practically insoluble”.

Question: And the water solubility (water at 25° C., from U.S. Pat. No. 6,841,167)?
Answer: Its water solubility is “about 2 μg per 1 milliliter (mL)”.
